Laboratory results from ChEMBL document CHEMBL3885861, “Open TG-GATES”.

Species: Rattus norvegicus
Assay: Open TG-GATES - Regimen: Single
Assay type: toxicity, organism-based, Sprague-Dawley
Set-up: regimen Single, gender Male, age 6 weeks
Conditions: in vivo, iv, route intravenous injection; for APTT / Bas / Eos / Fbg / Lym / MCHC / MCV / Mono / Neu / Plat / RBC / Ret / WBC / Ht / PT / Hb: tissue Blood; for KIDNEY_L / KIDNEY_R / KIDNEY_TOTAL: tissue Kidney; for LIVER: tissue Liver
[1] = 0 mg/kg, 3 h, dose level Control
[2] = 0 mg/kg, 3 h, tissue Plasma, dose level Control
[3] = 0 mg/kg, 6 h, dose level Control
[4] = 0 mg/kg, 6 h, tissue Plasma, dose level Control
[5] = 0 mg/kg, 9 h, dose level Control
[6] = 0 mg/kg, 9 h, tissue Plasma, dose level Control
[7] = 0 mg/kg, 24 h, dose level Control
[8] = 0 mg/kg, 24 h, tissue Plasma, dose level Control

## GENTAMICIN
[1]
  TERMINAL_BW: 212.9 g
  APTT: 22 s
  Bas: 0%
  Eos: 0.8%
  Fbg: 293.2 mg/dL
  Lym: 79.6%
  MCHC: 33.9%
  MCV: 61.4 fL
  Mono: 2.8%
  Neu: 16%
  Plat: 119.4 x10_4/uL
  RBC: 631.2 x10_4/ul
  Ret: 6.4%
  WBC: 123.3 x10_2/uL
  KIDNEY_L: 0.9 g
  KIDNEY_R: 0.9 g
  KIDNEY_TOTAL: 1.9 g
  LIVER: 9.3 g
[2]
  ALP: 1296.6 IU/L
  ALT: 39.2 IU/L
  AST: 70.6 IU/L
  CRE: 0.2 mg/dL
  DBIL: 0 mg/dL
  GLC: 187.4 mg/dL
  IP: 7.4 mg/dL
  K: 4.4 meq/L
  LDH: 165.6 IU/L
  PL: 121.4 mg/dL
  RALB: 2.9 g/dL
  TBIL: 0.022 mg/dL
  TC: 63.6 mg/dL
  TG: 71 mg/dL
  TP: 5.3 g/dL
  gamma-GTP: 1.2 IU/L
[3]
  TERMINAL_BW: 209.6 g
  APTT: 23.6 s
  Bas: 0%
  Eos: 0.6%
  Fbg: 270.6 mg/dL
  Ht: 39.7%
  MCHC: 33.6%
  Mono: 2.6%
  PT: 16.4 s
  Plat: 119.5 x10_4/uL
  RBC: 629 x10_4/ul
  Ret: 7%
  WBC: 123.2 x10_2/uL
  KIDNEY_L: 0.9 g
  KIDNEY_R: 0.9 g
  KIDNEY_TOTAL: 1.8 g
  LIVER: 8.7 g
[4]
  ALP: 1253 IU/L
  ALT: 36.6 IU/L
  AST: 70.2 IU/L
  BUN: 11.2 mg/dL
  CRE: 0.2 mg/dL
  DBIL: 0 mg/dL
  IP: 8.3 mg/dL
  K: 4.4 meq/L
  LDH: 199.6 IU/L
  RALB: 2.9 g/dL
  TBIL: 0.018 mg/dL
  TC: 74 mg/dL
  TG: 75 mg/dL
  TP: 5.3 g/dL
  gamma-GTP: 1.2 IU/L
[5]
  APTT: 22.8 s
  Bas: 0%
  Eos: 1%
  Fbg: 313.6 mg/dL
  Hb: 12.9 g/dL
  Ht: 38.5%
  Lym: 82%
  MCHC: 33.5%
  MCV: 61.2 fL
  Mono: 2.6%
  PT: 16 s
  Plat: 124.4 x10_4/uL
  RBC: 628 x10_4/ul
  Ret: 6.9%
  WBC: 82.5 x10_2/uL
  KIDNEY_L: 0.9 g
  KIDNEY_R: 0.9 g
  KIDNEY_TOTAL: 1.8 g
  LIVER: 8.3 g
[6]
  ALP: 1527.6 IU/L
  ALT: 36.4 IU/L
  AST: 67.4 IU/L
  CRE: 0.2 mg/dL
  DBIL: 0 mg/dL
  GLC: 199.2 mg/dL
  IP: 9.5 mg/dL
  K: 4.1 meq/L
  LDH: 131.6 IU/L
  PL: 126.2 mg/dL
  RALB: 2.9 g/dL
  TBIL: 0.022 mg/dL
  TG: 38.2 mg/dL
  TP: 5.4 g/dL
  gamma-GTP: 1.2 IU/L
[7]
  TERMINAL_BW: 228.2 g
  APTT: 23.4 s
  Bas: 0%
  Eos: 1%
  Fbg: 293.6 mg/dL
  Ht: 38.2%
  MCHC: 34.3%
  MCV: 61.9 fL
  Mono: 2.6%
  Neu: 16%
  Plat: 125.4 x10_4/uL
  RBC: 618.6 x10_4/ul
  Ret: 5.8%
  WBC: 109.8 x10_2/uL
  KIDNEY_L: 1 g
  KIDNEY_R: 1 g
  KIDNEY_TOTAL: 2 g
[8]
  ALP: 1416.8 IU/L
  AST: 71.6 IU/L
  BUN: 15 mg/dL
  CRE: 0.2 mg/dL
  DBIL: 0 mg/dL
  IP: 6.9 mg/dL
  K: 4.4 meq/L
  LDH: 156.8 IU/L
  Na: 140.4 meq/L
  PL: 138.2 mg/dL
  RALB: 3 g/dL
  TBIL: 0.012 mg/dL
  TC: 68.4 mg/dL
  TG: 114.4 mg/dL
  TP: 5.4 g/dL
  gamma-GTP: 1.4 IU/L
10 mg/kg, 3 h, dose level Low
  TERMINAL_BW: 211.7 g
  APTT: 22.2 s
  Bas: 0%
  Eos: 0.2%
  Fbg: 301.8 mg/dL
  Hb: 13 g/dL
  Ht: 38.1%
